From patent US8063039B2, “3-aminopyrrolidone derivatives” (Newron Pharmaceuticals S.p.A., priority 2003, dated 2011)
Structures can show the parent of a compound that is named as a salt.

O=C1NCC[C@@H]1NCc1ccc(OCc2cccc(F)c2)cc1 (as salt: sulfonic acid salt) [Example 1, (S)-3-[4-(3-Fluorobenzyloxy)-benzylamino]-pyrrolidin-2-one]
melting point: 140.5 to 143.5 °C
